“And” between values parts separate entries of the source, which are not always exact repeats. Identical values can stand only once.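 48-hour exposure; five concentrations; linearly interpolated endpoints. The concentration for 50% growth inhibition is given as GI50. TGI denotes the concentration required for complete inhibition of growth.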

This is an account of results in PubChem BioAssay (NCI).

Among the test systems are LOX IMVI melanoma; HOP-92 NSCLC; SK-MEL-28 melanoma; NCI/ADR-RES ovarian; UO-31 renal; MOLT-4 leukemia; T-47D breast; SNB-19 CNS; ACHN renal; RXF 393 renal.
What all share (assay): inhibition of tumour cell growth, NCI panel, 48 h

On to `O=C1c2ccccc2-c2c1c1ccccc1c(=O)n2Cc1ccco1`, for which the TGI in the experiment on LOX IMVI melanoma, in the experiment with HOP-92 NSCLC, in the experiment on SK-MEL-28 melanoma, with NCI/ADR-RES ovarian, with UO-31 renal and with MOLT-4 leukemia was over 100 µM throughout. The same compound displayed a TGI in the experiment with T-47D breast of over 100 µM.
As for `CN(N=O)C(=O)Nc1c[nH]c(=O)[nH]c1=O`, the TGI with LOX IMVI melanoma, in the experiment on HOP-92 NSCLC, in the experiment with SNB-19 CNS, in the experiment with SK-MEL-28 melanoma, with ACHN renal and in the experiment on NCI/ADR-RES ovarian was over 100 µM each time. Further, the TGI in the experiment with UO-31 renal, in the experiment on MOLT-4 leukemia and in the experiment with T-47D breast was over 100 µM each time.
On to `Cc1ccc(C)c(NC(=O)C(=O)C(c2cnc3ccc([N+](=O)[O-])cc3n2)[N+](=O)[O-])c1` (stereo unspecified), for which the TGI is over 100 µM in the experiment with HOP-92 NSCLC; over 100 µM in the experiment with SNB-19 CNS; over 100 µM with SK-MEL-28 melanoma; over 100 µM in the experiment on ACHN renal; 63.8 µM in the experiment with NCI/ADR-RES ovarian; over 100 µM in the experiment on UO-31 renal. The TGI with MOLT-4 leukemia, with RXF 393 renal and in the experiment on T-47D breast was over 100 µM in each case.
As for `CNc1ccccc1C(=O)N/N=C/C=C/c1ccccc1`, the GI50 with LOX IMVI melanoma is 1.34 µM; in the experiment on HOP-92 NSCLC, 4.13 µM; in the experiment on SNB-19 CNS, 7.01 µM; in the experiment on SK-MEL-28 melanoma, 6.88 µM; with ACHN renal, 11.8 µM; in the experiment on NCI/ADR-RES ovarian, 0.568 µM. The GI50 is 8.08 µM in the experiment with UO-31 renal, 1.86 µM in the experiment with MOLT-4 leukemia and 3.48 µM in the experiment on T-47D breast. Further, the TGI in the experiment with LOX IMVI melanoma was over 100 µM; in the experiment on HOP-92 NSCLC it was 57.9 µM; in the experiment with SNB-19 CNS, over 100 µM; in the experiment with SK-MEL-28 melanoma, over 100 µM; with ACHN renal it was over 100 µM; in the experiment with NCI/ADR-RES ovarian, over 100 µM. Further, the results for the TGI with UO-31 renal, in the experiment with MOLT-4 leukemia and in the experiment on T-47D breast were 97.9 µM, over 100 µM and over 86.9 µM, respectively.
Regarding `CC1=C(C)C(=O)c2c(c(C(=O)c3ccccc3)c3nc4ccccc4n3c2C)C1=O`, the GI50 in the experiment on LOX IMVI melanoma is 69.9 µM; in the experiment on HOP-92 NSCLC, 26 µM; in the experiment with SNB-19 CNS, 38.1 µM; in the experiment with SK-MEL-28 melanoma it was over 100 µM; in the experiment with ACHN renal, 37.2 µM; in the experiment with NCI/ADR-RES ovarian it was over 100 µM. The GI50 in the experiment on UO-31 renal, in the experiment on MOLT-4 leukemia and in the experiment on T-47D breast was over 100 µM in each case. Also, the TGI in the experiment on LOX IMVI melanoma is over 100 µM; in the experiment with HOP-92 NSCLC, 87.3 µM; in the experiment on SNB-19 CNS it was over 100 µM; in the experiment with SK-MEL-28 melanoma, over 100 µM; with ACHN renal, over 100 µM; in the experiment on NCI/ADR-RES ovarian, over 100 µM. Besides, the TGI with UO-31 renal, in the experiment with MOLT-4 leukemia and in the experiment with T-47D breast was over 100 µM in each case.
Turning to `COc1ccc(-c2ccc(C3CC(c4ccc(O)cc4)=NN3)o2)c([N+](=O)[O-])c1` (stereo unspecified), the GI50 is 82.6 µM in the experiment with SNB-19 CNS; 45.8 µM in the experiment with SK-MEL-28 melanoma; 42 µM in the experiment on ACHN renal; 38.5 µM in the experiment on NCI/ADR-RES ovarian; 50.3 µM in the experiment with UO-31 renal; 5.14 µM with MOLT-4 leukemia. Further, the GI50 was 23.7 µM in the experiment with RXF 393 renal and 75 µM in the experiment on T-47D breast. In addition, the TGI is over 100 µM in the experiment with SNB-19 CNS; over 100 µM with SK-MEL-28 melanoma; over 100 µM in the experiment with ACHN renal; over 100 µM with NCI/ADR-RES ovarian; over 100 µM with UO-31 renal; 29.9 µM in the experiment on MOLT-4 leukemia. Also, the TGI with RXF 393 renal and in the experiment with T-47D breast was over 100 µM in each case.
As to `Cc1ccc(C)c(NC(=O)C(=O)C2C(=O)C3=C(CC2(C)C)Nc2ccccc2S3)c1` (stereo unspecified), the TGI in the experiment on LOX IMVI melanoma, in the experiment with HOP-92 NSCLC, with SNB-19 CNS, in the experiment on SK-MEL-28 melanoma, in the experiment on ACHN renal and with NCI/ADR-RES ovarian was over 100 µM each time. In addition, the TGI in the experiment on UO-31 renal, in the experiment on MOLT-4 leukemia and in the experiment on RXF 393 renal was over 100 µM each time.
As for `S=CN1CCCCC1`, the TGI in the experiment with LOX IMVI melanoma, in the experiment on SNB-19 CNS, with SK-MEL-28 melanoma, with ACHN renal, in the experiment with NCI/ADR-RES ovarian and in the experiment with UO-31 renal was over 100 µM each time. In addition, the TGI in the experiment on MOLT-4 leukemia and with T-47D breast was over 100 µM throughout.
With `CCC/C(=N\NC(=S)N1CCN(c2ccccn2)CC1)c1ccccn1`, the TGI in the experiment on LOX IMVI melanoma is 3.19 µM and 1.54 µM; with SNB-19 CNS, > 4.24 µM and 1.7 µM; in the experiment with SK-MEL-28 melanoma, > 10 µM and 1.47 µM; in the experiment with ACHN renal, > 3.16 µM and 1.24 µM; in the experiment on UO-31 renal, 3.42 µM and 1.44 µM; with MOLT-4 leukemia, > 10 µM and 1.05 µM. Besides, the TGI in the experiment with RXF 393 renal was 2.08 µM and 1.38 µM; with T-47D breast, 0.389 µM. The GI50 was 0.0156 µM with ACHN renal, 0.0529 µM in the experiment with UO-31 renal, 0.00925 µM with MOLT-4 leukemia and 0.0102 µM in the experiment on RXF 393 renal.
In the case of `CC(O)C1OC(O)C2OC(C)(C)OC12` (stereo unspecified), the TGI in the experiment with LOX IMVI melanoma, in the experiment on SNB-19 CNS, in the experiment on SK-MEL-28 melanoma, in the experiment on ACHN renal, in the experiment on NCI/ADR-RES ovarian and with UO-31 renal was over 100 µM each time. Besides, the TGI with MOLT-4 leukemia and in the experiment on T-47D breast was over 100 µM throughout.
`O=C1c2ccccc2-c2c1c1ccccc1c(=O)n2CCCNCCCn1c2c(c3ccccc3c1=O)C(=O)c1ccccc1-2`: the GI50 in the experiment with LOX IMVI melanoma is 1.49 µM; with SNB-19 CNS, 6.83 µM; with SK-MEL-28 melanoma, 11 µM; with ACHN renal it was 0.814 µM; in the experiment on NCI/ADR-RES ovarian, 3.94 µM; in the experiment with UO-31 renal, 2.16 µM. The GI50 is 0.398 µM with MOLT-4 leukemia, 4.07 µM in the experiment with RXF 393 renal and 10.7 µM in the experiment on T-47D breast. Further, the TGI with LOX IMVI melanoma was 8.25 µM; in the experiment on SNB-19 CNS, over 40.5 µM; in the experiment with SK-MEL-28 melanoma, over 36.9 µM; with ACHN renal, 8.81 µM; with NCI/ADR-RES ovarian it was 17.3 µM; with UO-31 renal it was over 50 µM. The values for the TGI with RXF 393 renal and in the experiment on T-47D breast were over 29.1 µM and 27.7 µM, respectively.
